From patent US20190388387A1, “COMPOSITION FOR INHIBITING MYOFIBROSIS” (SUNTORY HOLDINGS LIMITED, priority 2017, published 2019)

Tests used:
Colla1 gene = test: Fibrosis marker gene expression analysis (quantitative PCR), Colla1 gene; assay type: cell-based, rat; conditions: TGF β 1 ng/mL, 24 hours, FIG. 2(b)
Procedure: (§1) Gastrocnemius, soleus, plantaris muscle, tibialis anterior, extensor digitorum longus, and quadriceps were extracted from male Fischer 344 rats of 9 to 15 weeks old under anesthesia, and minced in phosphate buffered saline (PBS) (Life Technologies Corporation) on ice. The minced muscle tissue was enzymatically degraded by Protease (Sigma-Aldrich) at 37° C., and then centrifuged repeatedly, whereby the muscle satellite cells were isolated. The muscle satellite cells were suspended in Dulbecco's Modified Eagle Medium (DMEM) containing 10% fetal equine serum, and cultured for 24 hours. After culturing, centrifugation was performed again, and the deposited muscle satellite cells were seeded onto an 8-well slide glass (Thermo Fisher Scientific) to a density of 5×10^4 to 7×10^4 cells/mL in F-10 medium (Gibco) containing 20% bovine serum. After seeding, the muscle satellite cells were cultured for 72 hours or 120 hours. […] The cDNAs obtained by reverse transcription reaction was subjected to quantitative PCR in Step One Plus Real Time PCR System using TaqMan Fast Universal PCR Mastermix (Life Technologies Corporation). The expression levels of Colla1 gene and Acta2 gene as a myofibroblast marker were measured. For quantitative PCR, the cells were first maintained at 95° C. for 20 seconds, and then subjected to 40 cycles of reaction at 95° C. for 1 second and 60° C. for 20 seconds. […]

[1] = system: rat skeletal muscle-derived muscle satellite cells; test: Morphological changes of muscle satellite cells to myofibroblasts under TGF β fibrosis induction (Masson's Trichrome staining); assay type: cell-based; conditions: TGF β 1 ng/mL
Procedure: Gastrocnemius, soleus, plantaris muscle, tibialis anterior, extensor digitorum longus, and quadriceps were extracted from male Fischer 344 rats of 9 to 15 weeks old under anesthesia, and minced in phosphate buffered saline (PBS) (Life Technologies Corporation) on ice. The minced muscle tissue was enzymatically degraded by Protease (Sigma-Aldrich) at 37° C., and then centrifuged repeatedly, whereby the muscle satellite cells were isolated. The muscle satellite cells were suspended in Dulbecco's Modified Eagle Medium (DMEM) containing 10% fetal equine serum, and cultured for 24 hours. After culturing, centrifugation was performed again, and the deposited muscle satellite cells were seeded onto an 8-well slide glass (Thermo Fisher Scientific) to a density of 5×10^4 to 7×10^4 cells/mL in F-10 medium (Gibco) containing 20% bovine serum. After seeding, the muscle satellite cells were cultured for 72 hours or 120 hours. The muscle satellite cells for tissue staining were cultured for 72 hours, and muscle satellite cells for genetic analysis were cultured for 120 hours to provide enough cells. In the case of the muscle satellite cells to be cultured for 120 hours, the F-10 medium containing 20% bovine serum was replaced 72 hours after seeding. After the culturing for 72 hours or 120 hours, the muscle satellite cells were cultured in a differentiation-inducing medium for 24 hours. The differentiation-inducing medium was a medium in which a TGF β (TGF-β) signal inhibitor, quercetin, or solvent was added in an amount shown in Table 1 to Dulbecco's Modified Eagle Medium (DMEM) containing 2% fetal equine serum. TGF β (Sigma-Aldrich) was used for fibrosis induction. The compound was added to the differentiation-inducing medium using HCl as solvent to a final concentration of 1 ng/mL. TGF β was added when a TGF β signal inhibitor or quercetin was added. The TGF β signal inhibitor was SB525334 (6-[2-tert-butyl-5-(6-methyl-pyridin-2-yl)-1H-imidazol-4-yl]-quinoxaline available from Wako Pure Chemical Industries, Ltd.). […]

Acta2 gene = test: Fibrosis marker gene expression analysis (quantitative PCR), Acta2 gene; assay type: cell-based, rat; conditions: TGF β 1 ng/mL, 24 hours, Dunnett's test vs. TGF β(+), FIG. 2(a)
Procedure: as §1

Compound	expression of Colla1 gene (Colla1 gene; quercetin 50 μM and 100 μM)	morphological changes of muscle satellite cells to myofibroblast-like cells ([1]; quercetin 50 μM, 24 hours, vs. TGF β-added group, FIG. 1(d))	morphological changes of muscle satellite cells to myofibroblasts ([1]; quercetin 100 μM, 24 hours, vs. 50-μM quercetin-added group, FIG. 1(e))	expression of Acta2 gene (Acta2 gene; quercetin 100 μM)	expression of Colla1 gene (Colla1 gene; SB525334 1 μM, Dunnett's test vs. TGF β(+))	TGF β-induced morphological changes of muscle satellite cells to myofibroblasts ([1]; SB525334 1 μM, 24 hours in differentiation-inducing medium, FIG. 1(c))	expression of Acta2 gene (Acta2 gene; SB525334 1 μM)
O=c1c(O)c(-c2ccc(O)c(O)c2)oc2cc(O)cc(O)c12 [quercetin]	inhibited in a concentration-dependent manner	more inhibited	stronger effect of inhibiting morphological changes	significantly inhibited	–	–	–
Cc1cccc(-c2[nH]c(C(C)(C)C)nc2-c2ccc3nccnc3c2)n1 [SB525334, 6-[2-tert-butyl-5-(6-methyl-pyridin-2-yl)-1H-imidazol-4-yl]-quinoxaline, reference compound]	–	–	–	–	significantly inhibited	clearly inhibited	significantly inhibited
